Experimental data: patent US20130023645A1 (priority 2006, published 2013)
Values joined by “and” are separate entries in the source; they are usually repeats but may differ in a detail not shown here. Equal entries are not always repeated. Positions of bridges follow the written chain, without caps; N, C: chain ends. Non-standard residues stand in square brackets, D forms with d. Residues, ends and D or L forms follow the SMILES beside them. ξ: configuration not given here. Ala(indol-2-yl) = N[C@@H](Cc1cc2ccccc2[nH]1)C(=O)O; AllylGly = C=CC[C@H](N)C(=O)O; ξP = O=C(O)C1CCCN1

Biological target: T1, neuronal-type nicotinic receptors (Bos taurus, UniProt Q07263+Q8SPU6)
T1 construct: monolayer cultures of bovine adrenal chromaffin cells; endogenous in cells; host or cells: bovine adrenal chromaffin cells (primary monolayer cultures)
Type: cell-based, bovine

T1 sequence (Q07263 22-495): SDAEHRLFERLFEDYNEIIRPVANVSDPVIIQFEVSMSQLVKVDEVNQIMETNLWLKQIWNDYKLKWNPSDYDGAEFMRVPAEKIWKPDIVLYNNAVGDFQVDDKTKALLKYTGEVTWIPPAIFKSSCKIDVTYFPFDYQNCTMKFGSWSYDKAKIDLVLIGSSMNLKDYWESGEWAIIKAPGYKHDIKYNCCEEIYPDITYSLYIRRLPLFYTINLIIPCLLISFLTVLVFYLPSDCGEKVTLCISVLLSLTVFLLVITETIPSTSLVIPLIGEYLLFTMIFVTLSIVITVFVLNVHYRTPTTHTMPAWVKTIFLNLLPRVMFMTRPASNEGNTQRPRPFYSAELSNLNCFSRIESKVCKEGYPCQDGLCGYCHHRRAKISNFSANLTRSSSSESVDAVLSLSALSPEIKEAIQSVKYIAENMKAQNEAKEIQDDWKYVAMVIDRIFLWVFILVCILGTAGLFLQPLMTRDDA
T1 sequence (Q8SPU6 20-496): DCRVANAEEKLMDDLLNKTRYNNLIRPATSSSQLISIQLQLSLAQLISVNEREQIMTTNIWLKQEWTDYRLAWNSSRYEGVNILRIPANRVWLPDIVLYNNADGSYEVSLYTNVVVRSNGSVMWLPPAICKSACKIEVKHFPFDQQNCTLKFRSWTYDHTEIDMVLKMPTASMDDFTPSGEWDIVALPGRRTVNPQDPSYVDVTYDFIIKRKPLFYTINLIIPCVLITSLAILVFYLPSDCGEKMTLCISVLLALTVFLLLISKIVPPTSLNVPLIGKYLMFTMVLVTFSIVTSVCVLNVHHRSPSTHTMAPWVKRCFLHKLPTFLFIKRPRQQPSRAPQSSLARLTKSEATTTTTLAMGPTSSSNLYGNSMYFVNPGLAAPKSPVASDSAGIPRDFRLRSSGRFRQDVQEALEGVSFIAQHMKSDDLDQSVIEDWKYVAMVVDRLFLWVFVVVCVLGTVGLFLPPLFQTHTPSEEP

## C[C@@H]1NC(=O)[C@@H]2CSSC[C@H](NC(=O)CN)C(=O)N[C@@H](CC=CC[C@@H](C(N)=O)NC(=O)[C@H](CCCNC(=N)N)NC(=O)[C@H](Cc3cc4ccccc4[nH]3)NC1=O)C(=O)N[C@@H](CO)C(=O)N[C@@H](CC(=O)O)C(=O)N1CCCC1C(=O)N[C@@H](CCCNC(=N)N)C(=O)N2 (stereo partly drawn) [compound 119, [2,8]-Cystino-[3,12]-Dicarba Conotoxin ImI: NH2-Gly-Cys-c[Hag-Ser-Asp-Pro-Arg-Cys-Ala-Trp-Arg-Hag]-NH2] (H-GC[AllylGly]SD[ξP]RCA[Ala(indol-2-yl)]R[AllylGly]-NH2; disulfide 2-8; staple 3-12)
  Adrenaline Release, % control: 83.420% and 58.888%
  Adrenaline Release, mean: 3.77% and 2.76%
  Adrenaline Release, single determinations (1st-4th): 3.31% and 3.67% and 4.14% and 3.98% and 2.32% and 2.95% and 2.76% and 3.02%
  Noradrenaline Release, % control: 55.971% and 78.400%
  Noradrenaline Release, % inhibition: 21.600%
  Noradrenaline Release, mean: 4.15% and 5.52%
  Noradrenaline Release, single determinations (1st-4th): 3.22% and 4.58% and 3.99% and 4.81% and 4.89% and 5.75% and 5.73%
  noradrenaline released, basal release (0.72%) subtracted: 3.43%
